Assay results from the supplement of paper PMC13380429.
± gives the standard deviation of the averaged measurements.

Legend:
Conditions in all cases: 72 h
[1] = test system: HepG2; test: relative viability EC50 (midpoint between 100% and the lowest measured viability); higher = less toxic
[2] = test system: U2OS; test: as above
[3] = test system: Calu-3; test: as above
[4] = test system: Vero E6; test: as above
[5] = test system: Caco-2; test: as above
[6] = test system: HepG2; test: drug sensitivity score (DSS) for viability; higher = more toxic; extreme values may be limits of the assay
[7] = test system: U2OS; test: as above
[8] = test system: Calu-3; test: as above
[9] = test system: Vero E6; test: as above
[10] = test system: Caco-2; test: as above
[11] = test system: HepG2; test: cell viability relative to DMSO; higher = less toxic
[12] = test system: U2OS; test: as above
[13] = test system: Calu-3; test: as above
[14] = test system: Vero E6; test: as above
[15] = test system: Caco-2; test: as above

Structure (SMILES) | relative viability EC50 [1] | relative viability EC50 [2] | relative viability EC50 [3] | relative viability EC50 [4] | relative viability EC50 [5] | drug sensitivity score [6] | drug sensitivity score [7] | drug sensitivity score [8] | drug sensitivity score [9] | drug sensitivity score [10] | cell viability ([11]; 1 nM) | cell viability ([11]; 10 nM) | cell viability ([11]; 100 nM) | cell viability ([11]; 1000 nM) | cell viability ([11]; 10000 nM) | cell viability ([12]; 1 nM) | cell viability ([12]; 10 nM) | cell viability ([12]; 100 nM) | cell viability ([12]; 1000 nM) | cell viability ([12]; 10000 nM) | cell viability ([13]; 1 nM) | cell viability ([13]; 10 nM) | cell viability ([13]; 100 nM) | cell viability ([13]; 1000 nM) | cell viability ([13]; 10000 nM) | cell viability ([14]; 1 nM) | cell viability ([14]; 10 nM) | cell viability ([14]; 100 nM) | cell viability ([14]; 1000 nM) | cell viability ([14]; 10000 nM) | cell viability ([15]; 1 nM) | cell viability ([15]; 10 nM) | cell viability ([15]; 100 nM) | cell viability ([15]; 1000 nM) | cell viability ([15]; 10000 nM)
CC(/C=C/C(=O)NO)=C\[C@@H](C)C(=O)c1ccc(N(C)C)cc1 [trichostatin-a] | 0.194 µM | 0.162 µM | 0.336 µM | 0.0838 µM | 0.0788 µM | 20.6 | 21.4 | 16 | 24.6 | 24.9 | 101% | 93.1% | 84.2% | 0.4% | 0% | 99.7% | 95.4% | 77.3% | 1% | 0.7% | 107% | 103% | 89% | 20.4% | 7.5% | 98.7% | 94.4% | 44% | -0.2% | -0.1% | 97.3% | 101% | 37.1% | 2.4% | 3%
CN[C@@H](C)C(=O)N[C@H](C(=O)N1CCC[C@H]1C(=O)Nc1sc(-c2ncco2)nc1-c1ccccc1)C1CCCCC1 [CUDC-427] | > 10 µM | > 10 µM | > 10 µM | > 10 µM | > 10 µM | 0 | 0 | 0.1 | 0 | 0 | 111% | 91.5% | 96.3% | 90% | 95.2% | 98% | 99.9% | 99.2% | 108% | 92.7% | 96.6% | 107% | 86.5% | 102% | 85.6% | 94.2% | 96.6% | 105% | 105% | 111% | 98.1% | 101% | 98.5% | 109% | 99.7%
O=c1cc(N2CCOCC2)oc2c(-c3ccccc3)cccc12 | > 10 µM | > 10 µM | > 10 µM | > 10 µM | > 10 µM | 0.1 | 0 | 1.1 | 1.3 | 0.6 | 93.5% | 101% | 110% | 105% | 86.1% | 97.5% | 95% | 94.2% | 97.8% | 92.3% | 98% | 93.7% | 97.4% | 98.2% | 76.5% | 99.8% | 97.4% | 96.1% | 92.4% | 77.1% | 109% | 94.9% | 89% | 96.5% | 81.9%
C[C@@H]1CC[C@H]2C(C)(C)[C@H]3C[C@@]12CC[C@@]3(C)O [cedrol] | > 10 µM | > 10 µM | > 10 µM | > 10 µM | > 10 µM | 0 | 0 | 0 | 0 | 0 | 97.7% | 102% | 98% | 104% | 118% | 99.9% | 94.5% | 101% | 97.1% | 101% | 96.9% | 97.1% | 103% | 87.7% | 102% | 94.5% | 96.5% | 91.2% | 94.7% | 103% | 97.5% | 88.4% | 100% | 99.4% | 104%
Nc1ncnc2nc(-c3ccc(N4CCOCC4)nc3)cc(-c3cccc(Br)c3)c12 [ABT-702] | > 10 µM | > 10 µM | > 10 µM | > 10 µM | > 10 µM | 0 | 0 | 0 | 0 | 0 | 104% | 96.4% | 96.5% | 108% | 89.6% | 106% | 103% | 104% | 99.8% | 101% | 103% | 83.3% | 112% | 95.3% | 100% | 96.1% | 100% | 95.2% | 94.4% | 88.1% | 107% | 99.9% | 102% | 104% | 93.4%
O=C(CCc1ccc(O)cc1)c1c(O)cc(O)cc1O [phloretin] | > 10 µM | > 10 µM | > 10 µM | > 10 µM | > 10 µM | 0 | 0 | 0 | 0 | 0 | 107% | 98.3% | 94.2% | 99.1% | 99.4% | 95.8% | 100% | 103% | 96.8% | 101% | 104% | 93.2% | 98.7% | 98% | 91.3% | 105% | 102% | 99.9% | 103% | 95.1% | 92.1% | 101% | 97.5% | 101% | 98.6%
COc1cc(N)c(Cl)cc1C(=O)NC1CCN(Cc2ccccc2)CC1 [clebopride] | > 10 µM | > 10 µM | > 10 µM | > 10 µM | > 10 µM | 0 | 0 | 0 | 0 | 0.1 | 97.1% | 97.5% | 95.1% | 104% | 94.7% | 93.7% | 97.2% | 96.8% | 97.3% | 94% | 94.3% | 101% | 107% | 96.6% | 94.2% | 93.6% | 104% | 102% | 97.6% | 98.1% | 107% | 99.9% | 108% | 102% | 85.6%
CCN1CCCC1=O [1-ethyl-2-pyrrolidone] | > 10 µM | > 10 µM | > 10 µM | > 10 µM | > 10 µM | 0 | 0 | 0 | 0 | 0 | 99.1% | 99.1% | 94% | 99.9% | 97.2% | 95.9% | 98.4% | 104% | 95.5% | 102% | 97.9% | 104% | 104% | 98.6% | 104% | 103% | 103% | 97% | 97.9% | 95.3% | 93.6% | 99.6% | 99.4% | 88% | 95.2%
C[C@@H]1Cc2c([nH]c3ccccc23)[C@@H](c2c(F)cc(/C=C/C(=O)O)cc2F)N1CC(C)(C)F [AZD9496] | > 10 µM | > 10 µM | > 10 µM | > 10 µM | > 10 µM | 0 | 0 | 0 | 0 | 0 | 103% | 90% | 104% | 98.8% | 97.5% | 98.8% | 100% | 99% | 102% | 98.9% | 97.1% | 91.7% | 90.8% | 93.6% | 105% | 102% | 100% | 104% | 101% | 91.7% | 94.2% | 104% | 99.6% | 94.7% | 93.5%
CCCCNc1cc(C(=O)O)cc(S(N)(=O)=O)c1Oc1ccccc1 [bumetanide] | > 10 µM | > 10 µM | > 10 µM | > 10 µM | > 10 µM | 0 | 0 | 0 | 0 | 0 | 103% | 98.5% | 104% | 107% | 94.6% | 97.9% | 101% | 98.9% | 99.1% | 102% | 95% | 93.1% | 104% | 95.4% | 95.1% | 117% | 108% | 107% | 95.6% | 99% | 90.2% | 103% | 103% | 94.1% | 96.7%
COC(=O)c1ccccc1NC(=O)c1ccc(F)cc1 [EXO-1] | > 10 µM | > 10 µM | > 10 µM | > 10 µM | > 10 µM | 0 | 0 | 0 | 0 | 0 | 95.6% | 99.9% | 91.8% | 94.7% | 111% | 98.7% | 91.8% | 98.3% | 95.7% | 98.8% | 97.9% | 98.1% | 99.6% | 95.6% | 96.5% | 95.2% | 94.6% | 91% | 93.6% | 99.5% | 99.5% | 93% | 100% | 103% | 100%
CCCn1c(=O)c2[nH]c(-c3cnn(Cc4cccc(C(F)(F)F)c4)c3)nc2n(CC)c1=O [GS-6201] | > 10 µM | > 10 µM | > 10 µM | > 10 µM | > 10 µM | 0 | 0 | 0 | 0 | 0 | 106% | 91.6% | 104% | 94.2% | 96.8% | 96.9% | 101% | 96.3% | 105% | 100% | 103% | 109% | 96.3% | 96.1% | 97.4% | 98.5% | 96.1% | 96.5% | 97.8% | 104% | 98.5% | 104% | 105% | 108% | 100%
CC1OC2(CS1)CN1CCC2CC1 (stereo not given) [cevimeline] | > 10 µM | > 10 µM | > 10 µM | > 10 µM | > 10 µM | 0 | 0 | 0 | 0 | 0 | 107% | 97% | 94.9% | 89.2% | 111% | 99.1% | 98.9% | 99.7% | 106% | 106% | 106% | 92.9% | 102% | 97.1% | 103% | 96.7% | 91.5% | 92.7% | 89.7% | 102% | 98.3% | 88.1% | 91.3% | 91% | 96.3%
CC1(C)[C@H]2CC[C@]1(C)[C@@H](O)[C@H]2O [cis-exo-camphanediol-2,3] | > 10 µM | > 10 µM | > 10 µM | > 10 µM | > 10 µM | 0 | 0 | 0 | 0 | 0 | 92% | 88.7% | 98.7% | 98.1% | 102% | 99.55 ± 0.071% | 106 ± 1.4% | 99 ± 1.6% | 99.5 ± 3.2% | 99 ± 5.7% | 104 ± 7.5% | 100 ± 1.9% | 106.2 ± 0.64% | 102 ± 5.9% | 97.85 ± 0.21% | 97.8 ± 2.5% | 96.5 ± 10% | 96.8 ± 1.5% | 94.8 ± 6.7% | 95.6 ± 3.2% | 99.8 ± 5.1% | 104 ± 12% | 100 ± 9.5% | 102 ± 15% | 95.5 ± 5.4%
